Experimental data taken from patent US8153556B2, “Synergistic herbicidal compositions containing benfluralin” (Dow AgroSciences LLC, priority 2009, dated 2012).

Experiments:
Test in all cases: Pre-emergence field weed control in winter wheat (visual rating)
Format in all cases: in vivo
[1] = system: GALAP = Galium aparine L. (cleavers); conditions: benfluralin 1,000 g ai/ha, prosulfocarb 3,000 g ai/ha
Experimental: (§1) Soft winter wheat was planted using normal cultural practices in France and Germany in October under normal environmental conditions that allowed rapid germination and growth of wheat and weeds. Fields were prepared as per normal cultural practices, by applying appropriate fertilizers for normal winter wheat growth and yield, working and leveling the ground, and planting at normal time of year using 150 to 170 kg/ha seed with mechanical planters to maximize emergence, growth and yield. Weed infestations varied from 280 to 500 plants per square meter (plants/m^2).
(§2) Treatments consisted of benfluralin applied alone, as well as diflufenican, flufenacet and prosulfocarb applied alone, and in combination with benfluralin, to measure herbicidal weed control and any synergistic interactions. These treatments were applied using backpack sprayers applying spray volumes of 200-250 liters per hectare (L/ha) at a spray pressure of 230 KPA to plots 2.5 meters (m)×8 m, randomized 4 times per treatment. All treatments were applied pre-emergence to the soil, after planting the winter wheat. The pre-emergence treatments were activated with normal rainfall. Treatments were rated on a 0-100% scale, with 0%=no control and 100%=complete control.
(§3) Colby's equation was used to determine the herbicidal effects expected from the mixtures (Colby, S. R. Weeds 1967, 15, 20-22. Calculation of the synergistic and antagonistic response of herbicide combinations).
(§4) The following equation was used to calculate the expected activity of mixtures containing two active ingredients, A and B: Expected=A+B−(A×B/100)
(§5) A=observed efficacy of active ingredient A at the same concentration as used in the mixture.
(§6) B=observed efficacy of active ingredient B at the same concentration as used in the mixture.
(§7) The herbicide tankmix combinations tested, application rates and ratios employed, plant species tested, and results are given in Tables 1 to 6.

[2] = system: ALOMY = Alopecurus agrestis L. (blackgrass)
Experimental: as §1, §2, §3, §4, §5, §6, §7

[3] = system: GERRT = Geranium rotundifolium L. (round-leaved Cranesbill); conditions: benfluralin 1,000 g ai/ha
Experimental: as §1, §2, §3, §4, §5, §6, §7

[4] = system: VERHE = Veronica hederifolia L. (ivyleaf speedwell); conditions: Test 2, 150 days after application, benfluralin 1,200 g ai/ha, flufenacet 240 g ai/ha
Experimental: as §1, §2, §3, §4, §5, §6, §7

[5] = Test 1, 27 days after application
[6] = Test 1, 174 days after application
[7] = Test 1, 236 days after application
[8] = Test 1, 13 days after application, benfluralin 1,200 g ai/ha, flufenacet 240 g ai/ha
[9] = Test 1, 27 days after application, benfluralin 1,000 g ai/ha, diflufenican 100 g ai/ha
[10] = Test 1, 27 days after application, benfluralin 1,000 g ai/ha, prosulfocarb 3,000 g ai/ha
[11] = Test 1, 174 days after application, benfluralin 1,000 g ai/ha, diflufenican 100 g ai/ha
[12] = Test 1, 174 days after application, benfluralin 1,000 g ai/ha, prosulfocarb 3,000 g ai/ha
[13] = Test 1, 236 days after application, benfluralin 1,000 g ai/ha, diflufenican 100 g ai/ha
[14] = Test 1, 236 days after application, benfluralin 1,000 g ai/ha, prosulfocarb 3,000 g ai/ha
[15] = Test 1, 236 days after application, benfluralin 1,200 g ai/ha, flufenacet 240 g ai/ha
[16] = Test 2, 169 days after application, benfluralin 1,000 g ai/ha, diflufenican 100 g ai/ha
[17] = Test 2, 189 days after application, benfluralin 1,000 g ai/ha, prosulfocarb 3,000 g ai/ha
[18] = Test 2, 189 days after application, benfluralin 1,200 g ai/ha, flufenacet 240 g ai/ha
[19] = Test 2, 199 days after application, benfluralin 1,000 g ai/ha, diflufenican 100 g ai/ha
[20] = Test 1, 27 days after application, diflufenican 100 g ai/ha
[21] = Test 1, 27 days after application, prosulfocarb 3,000 g ai/ha
[22] = Test 1, 174 days after application, prosulfocarb 3,000 g ai/ha
[23] = Test 1, 236 days after application, diflufenican 100 g ai/ha
[24] = Test 1, 236 days after application, prosulfocarb 3,000 g ai/ha

Row | SMILES | % Visual Weed Control GALAP Obs [1, 5] | % Visual Weed Control GALAP Obs [1, 6] | % Visual Weed Control GALAP Obs [1, 7] | % Visual Weed Control ALOMY Obs [2, 8] | % Visual Weed Control ALOMY Obs [2, 9] | % Visual Weed Control ALOMY Obs [2, 10] | % Visual Weed Control ALOMY Obs [2, 11] | % Visual Weed Control ALOMY Obs [2, 12] | % Visual Weed Control ALOMY Obs [2, 13] | % Visual Weed Control ALOMY Obs [2, 14] | % Visual Weed Control ALOMY Obs [2, 15] | % Visual Weed Control ALOMY Obs [2, 16] | % Visual Weed Control ALOMY Obs [2, 17] | % Visual Weed Control ALOMY Obs [2, 18] | % Visual Weed Control ALOMY Obs [2, 19] | % Visual Weed Control GERRT Obs [3, 20] | % Visual Weed Control GERRT Obs [3, 21] | % Visual Weed Control GERRT Obs [3, 22] | % Visual Weed Control GERRT Obs [3, 23] | % Visual Weed Control GERRT Obs [3, 24] | also measured
1 | CCCCN(CC)c1c([N+](=O)[O-])cc(C(F)(F)F)cc1[N+](=O)[O-] [Benfluralin, N-butyl-N-ethyl-2,6-dinitro-4-(trifluoromethyl)benzenamine] | 7% | 8% | 7% | 7% | 17% | 17% | 20% | 20% | 23% | 23% | 29% | 0% | 0% | 0% | 0% | 6% | 6% | 7% | 7% | 7% | % Visual Weed Control VERHE Obs [4]: 43%
2 | O=C(Nc1ccc(F)cc1F)c1cccnc1Oc1cccc(C(F)(F)F)c1 [Diflufenican, N-(2,4-difluorophenyl)-2-[3-(trifluoromethyl)phenoxy]-3-pyridinecarboxamide] |  |  |  |  | 19% |  | 22% |  | 23% |  |  | 0% |  |  | 7% | 72% |  |  | 63% |  | 
3 | CC(C)N(C(=O)COc1nnc(C(F)(F)F)s1)c1ccc(F)cc1 [Flufenacet, N-(4-fluorophenyl)-N-(1-methylethyl)-2-[[5-(trifluoromethyl)-1,3,4-thiadiazol-2-yl]oxy]acetamide] |  |  |  | 26% |  |  |  |  |  |  | 80% |  |  | 82% |  |  |  |  |  |  | % Visual Weed Control VERHE Obs [4]: 0%
4 | CCCN(CCC)C(=O)SCc1ccccc1 [Prosulfocarb, S-(phenylmethyl) dipropylcarbamothioate] | 37% | 39% | 42% |  |  | 30% |  | 33% |  | 35% |  |  | 30% |  |  |  | 21% | 25% |  | 27% | 
